According to US20060211606A1, “Peptides” (priority 2005, published 2006):
Where no end group is shown, it is not given here. [ ]: non-standard residue; d: D form.

Test system: Human Skeletal Muscle Myoblasts (HSMM)
Experiment: HSMM proliferation, BrdU incorporation
Format: cell-based
Settings: 48 hours
Procedure: (A) Peptide A5: HSMM cells at 500 cells/well. Cultivation was carried out for 24 hours in 10% FCS, followed by two washes in serum free medium, stimulation for 48 hours and then treatment with BrdU for 5 hours. Concentrations of 0.1, 1, 10, 100 and 500 ng/ml of peptide A5 were tested, along with 0.1, 1, 10 and 100 ng/ml IGF-I. BrdU incorporation was measured to assess the level of cell proliferation achieved. Controls containing medium only, no cells (BLK), background staining (BG) and 10% FBS were also provided. Values on the Y-axis are for fluorescence (absorbence at 370 nm; mean plus standard error across 4 wells). The first five columns relate to peptide A5 at concentrations of 0.1, 1, 10, 100 and 500 ng/ml. The next column relates to the control containing medium only. The next three relate to IGF-I (See Example 1.5) alone at concentrations of 100, 10 and 0.1 ng/ml. The next three relate to controls containing 10% FBS, background staining and no cells respectively. * means P<0.05 compared to medium only control.
(B) Peptide AS: HSMM cells at 500 cells/well. […] Concentrations of 0.1, 1, 10, 100 and 500 ng/ml of peptide AS in combination with 2 ng/ml IGF-I were tested, along with 0.1, 1, 10 and 100 ng/ml IGF-I. BrdU incorporation was measured to assess the level of cell proliferation achieved. […] Values on the Y-axis are for fluorescence (absorbence at 370 nm; mean plus standard error across 4 wells). […]
(A) Peptide AS: HSMM cells at 500 cells/well. […] Concentrations of 0.1, 1, 10, 100 and 500 ng/ml of peptide AS were tested, along with 0.1, 1, 10 and 100 ng/ml IGF-I. BrdU incorporation was measured to assess the level of cell proliferation achieved. […] Values on the Y-axis are for fluorescence (absorbence at 370 nm; mean plus standard error across 4 wells). […]
(B) Peptide A5: HSMM cells at 500 cells/well. […] Concentrations of 0.1, 1, 10, 100 and 500 ng/ml of peptide AS in combination with 2 ng/ml IGF-I were tested, along with 0.1, 1, 10 and 100 ng/ml IGF-I. BrdU incorporation was measured to assess the level of cell proliferation achieved. […]

In the case of “A5: SEQ ID NO: 15 with D-Arginine at positions 14 and 15, amidated at the C-terminus, not pegylated (YQPPSTNKNTKSQ[dR][dR]KGSTFEEHK-NH2; N-terminus assumed; SMILES C[C@@H](O)[C@H](NC(=O)[C@H](CO)NC(=O)CNC(=O)[C@H](CCCCN)NC(=O)[C@@H](CCCNC(=N)N)NC(=O)[C@@H](CCCNC(=N)N)NC(=O)[C@H](CCC(N)=O)NC(=O)[C@H](CO)NC(=O)[C@H](CCCCN)NC(=O)[C@@H](NC(=O)[C@H](CC(N)=O)NC(=O)[C@H](CCCCN)NC(=O)[C@H](CC(N)=O)NC(=O)[C@@H](NC(=O)[C@H](CO)NC(=O)[C@@H]1CCCN1C(=O)[C@@H]1CCCN1C(=O)[C@H](CCC(N)=O)NC(=O)[C@@H](N)Cc1ccc(O)cc1)[C@@H](C)O)[C@@H](C)O)C(=O)N[C@@H](Cc1ccccc1)C(=O)N[C@@H](CCC(=O)O)C(=O)N[C@@H](CCC(=O)O)C(=O)N[C@@H](Cc1c[nH]cn1)C(=O)N[C@@H](CCCCN)C(N)=O) [Peptide A5]”, the “proliferation of HSMM (BrdU incorporation), with 2 ng/ml IGF-I in the medium” value (A5 in combination with 2 ng/ml IGF-I, P<0.001) is reported as “significant effect on the proliferation of HSMM at a higher confidence level” and the “proliferation of HSMM (BrdU incorporation), used in isolation” value (A5 significant (P<0.1) at doses of 10 ng/ml and below, IGF-I alone 0.1, 10 and 100 ng/ml) is reported as “significant effect”.
